Calls of active or inactive are those of the source. No rule for the calls is given here.
What follows are compounds tested against Luciferin 4-monooxygenase (Photinus pyralis) (UniProt P08659) (assay: native FLuc inhibition dose response – biochemical, luminescence, artefact control for HSP90 inhibitor project (AID 1912)). Conditions: purified firefly luciferase.
Chain of Luciferin 4-monooxygenase (Photinus pyralis) (P08659 whole entry, looked up): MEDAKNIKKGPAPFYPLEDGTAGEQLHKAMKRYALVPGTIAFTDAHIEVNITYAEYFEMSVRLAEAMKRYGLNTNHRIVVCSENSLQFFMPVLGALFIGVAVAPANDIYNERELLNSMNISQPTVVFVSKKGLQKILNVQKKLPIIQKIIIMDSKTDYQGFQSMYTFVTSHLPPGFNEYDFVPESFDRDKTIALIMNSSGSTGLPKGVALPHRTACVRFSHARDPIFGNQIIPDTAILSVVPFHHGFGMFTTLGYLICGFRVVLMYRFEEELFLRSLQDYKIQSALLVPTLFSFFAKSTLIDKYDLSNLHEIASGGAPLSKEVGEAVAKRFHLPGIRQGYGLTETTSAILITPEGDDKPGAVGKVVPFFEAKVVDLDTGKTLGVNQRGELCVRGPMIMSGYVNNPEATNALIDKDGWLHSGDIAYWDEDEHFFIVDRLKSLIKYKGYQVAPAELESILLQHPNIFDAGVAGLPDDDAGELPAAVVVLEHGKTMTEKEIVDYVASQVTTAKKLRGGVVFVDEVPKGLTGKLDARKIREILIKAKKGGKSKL

IC50	Compound
inactive	COc1cc(/C=C/[N+](=O)[O-])ccc1OCc1cccc(C(=O)O)c1
> 60 µM (inactive)	COC(=O)C1CCN(C(=O)c2ccc3nc(-c4cccc(OC)c4)oc3c2)CC1
> 60 µM (inactive)	C=CCc1ccc(OCc2ccc(C(=O)OC)o2)c(OC)c1
> 60 µM (inactive)	O=C(CN1C(=O)c2ccccc2S1(=O)=O)N1CCc2ccccc21
> 60 µM (inactive)	CC(=O)Nc1ccc(NC2=C/C(=N/S(=O)(=O)c3cccs3)c3ccccc3C2=O)cc1
> 60 µM (inactive)	O=C(O)c1cc(N/N=C/c2c[nH]c3ccccc23)ccc1Cl
inactive	O=C(CSc1ncccc1C(=O)O)c1ccc2ccccc2c1
> 60 µM (inactive)	CCN(CC)c1ccc2cc(NC(=O)CCC(=O)O)c(=O)oc2c1
> 60 µM (inactive)	CC(=O)CSc1ccc(-c2nc3ccccc3[nH]2)cn1
> 60 µM (inactive)	O=C(CN1C(=O)c2ccccc2S1(=O)=O)c1ccc2c(c1)OCCO2
> 60 µM (inactive)	COc1ccc(N(/N=C2\Sc3ccccc3C2=O)C(C)=O)cc1
> 60 µM (inactive)	COc1ccc(C(=O)Oc2ccc(/C=N/Nc3ccc(Cl)c(C(=O)O)c3)cc2OC)cc1
> 60 µM (inactive)	O=C(Cc1ccccc1)N1CCN(S(=O)(=O)c2ccc([N+](=O)[O-])cc2)CC1
> 60 µM (inactive)	COc1cc(/C=N/Nc2ccc(Cl)c(C(=O)O)c2)ccc1OC(=O)c1ccccc1F
> 60 µM (inactive)	CN(C)c1ccc(C2Nc3cccc4cccc(c34)N2)cc1
> 60 µM (inactive)	CCOc1ccc(-c2nc(CN3CCCCC3CCn3cccn3)c(C)o2)cc1 (stereo unspecified)
> 60 µM (inactive)	CCOC(=O)c1ccc(-c2ccc(C=O)o2)cc1
inactive	COc1ccc(-c2cn3c(C)c(C(=O)Nc4cccc(C)n4)sc3n2)cc1
> 60 µM (inactive)	Cc1ccc2nc(NC(=O)CSCC(=O)OCC(=O)c3ccccc3)sc2c1
> 60 µM (inactive)	CCOC(=O)c1csc(NC(=O)c2ccc(OCC)cc2)n1
> 60 µM (inactive)	Cc1nc(NC(=O)c2ccc(F)cc2)sc1C(=O)Nc1ccc2c(c1)CCC2
> 60 µM (inactive)	COC(=O)c1ccccc1OCCCOc1ccc(C=O)cc1OC
> 60 µM (inactive)	COC(=O)c1ccccc1NC1=C/C(=N\S(=O)(=O)c2ccc(C(=O)O)cc2)c2ccccc2C1=O
> 60 µM (inactive)	C=CCn1c(NS(=O)(=O)c2ccccc2)c(S(=O)(=O)c2ccc(C)cc2)c2nc3ccccc3nc21
> 60 µM (inactive)	C=CCOC(=O)c1sc(NC(=O)c2ccc(OC)cc2)nc1C
> 60 µM (inactive)	CCOC(=O)c1csc(COc2ccc(OC)cc2)n1

IC50	Compound
> 60 µM (inactive)	CCOC(=O)c1csc(NC(=O)c2ccc3c(c2)OCCO3)n1
> 60 µM (inactive)	CNC(=S)N/N=C/c1ccc(-c2ccc(C(=O)O)cc2)o1
inactive	O=C1C(Nc2ccccc2)=C/C(=N/S(=O)(=O)c2cccs2)c2ccccc21
inactive	CC(=O)CSc1nnc(-c2ccc3c(c2)OCO3)o1
> 20 µM (inactive)	COC(=O)c1cc(C)nc2c1C(=O)C(=O)C=C2N1CCOCC1
> 60 µM (inactive)	Cc1nc(CS(=O)(=O)c2ccc(Cl)cc2)sc1C(=O)O
> 60 µM (inactive)	Cc1ccc2oc(=O)c(/C=C(\O)c3ccco3)nc2c1
> 60 µM (inactive)	O=c1oc2ccc(Cl)cc2nc1/C=C(\O)c1ccco1
> 60 µM (inactive)	Cc1nc(NC(=O)c2cccc(Cl)c2)sc1C(=O)N1CCCCC1
> 60 µM (inactive)	Cc1ccc(S(=O)(=O)/N=C2\C=C(Nc3cccc(C(=O)O)c3)C(=O)c3ccccc32)cc1
> 60 µM (inactive)	CC(C)Sc1nc(SCC(=O)NCc2ccco2)c2c3c(sc2n1)COC(C)(C)C3
inactive	O=C(CN1C(=O)c2ccccc2S1(=O)=O)c1ccccc1Cl
> 60 µM (inactive)	CCCCn1c(NC(=O)c2ccccc2Cl)c(C#N)c2nc3ccccc3nc21
inactive	CS(=O)(=O)c1ccc(-c2cn3cc(C(=O)O)ccc3n2)cc1
> 60 µM (inactive)	COCC(C)n1c(C)cc(C(=O)Cn2nc(C(=O)O)c3ccccc3c2=O)c1C (stereo unspecified)
> 60 µM (inactive)	C#CCn1cc(/C=C2\NC(=O)NC2=O)c2ccccc21
> 60 µM (inactive)	CC(=O)c1ccc(N=Nc2c(C)[nH]n(-c3ccccc3)c2=O)cc1
> 60 µM (inactive)	CC(=O)Oc1ccc(Nc2ccccc2)cc1
> 60 µM (inactive)	O=C(O)CSCC(=O)Nc1ccc(C2CCCCC2)cc1
inactive	O=C1C(Nc2ccc(O)cc2)=C/C(=N/S(=O)(=O)c2cccs2)c2ccccc21
> 60 µM (inactive)	COc1cc(/C=N/Nc2ccc(Cl)c(C(=O)O)c2)ccc1OC(=O)c1ccco1
> 60 µM (inactive)	COc1cc(N2Cc3ccccc3C2)ccc1C=O
inactive	Cc1ccccc1NC1=C/C(=N\S(=O)(=O)c2ccc(C(=O)O)cc2)c2ccccc2C1=O
> 60 µM (inactive)	Cc1cc(NC(=O)c2coc(=O)c(Br)c2)ccc1C(C)C
inactive	CCCc1ccc(OCc2ccc(C(=O)N3CCSCC3)o2)cc1
> 60 µM (inactive)	COC(=O)NCCOC(=O)N(O)c1ccc(Br)cc1

IC50	Compound
> 60 µM (inactive)	Cc1cc(NO)nc(-c2ccc(Br)cc2)n1
> 60 µM (inactive)	COc1cc(/C=N/Nc2ccc(Cl)c(C(=O)O)c2)ccc1OC(=O)c1ccc(F)cc1
> 60 µM (inactive)	CCc1ccc(S(=O)(=O)/N=C2\C=C(Nc3ccc(C(=O)O)cc3)C(=O)c3ccccc32)cc1
> 60 µM (inactive)	O=[N+]([O-])/C=C/c1ccc2c(ccn2Cc2ccccc2)c1
> 60 µM (inactive)	CC(=O)Oc1ccccc1/C=C/c1nc2ccccc2c(=O)o1
> 60 µM (inactive)	CCc1ccc(OCc2ccc(C(=O)OC)o2)cc1
> 60 µM (inactive)	COC(=O)c1ccc2nc(NC(=O)C3CC3)sc2c1
> 20 µM (inactive)	Cc1ccccc1NC1=C/C(=N\S(=O)(=O)c2cccs2)c2ccccc2C1=O
> 60 µM (inactive)	O=S(=O)(Cc1ccccc1)N(O)c1ccccc1
> 60 µM (inactive)	Cc1c(-c2nc(-c3ccc(C(C)(C)C)cc3)no2)n(C)oc1=O
> 60 µM (inactive)	CCc1ccc(S(=O)(=O)/N=C2\C=C(Nc3cccc(C(=O)O)c3)C(=O)c3ccccc32)cc1
> 60 µM (inactive)	CC(=O)Nc1ccc(OS(=O)(=O)c2ccc([N+](=O)[O-])cc2)cc1
> 60 µM (inactive)	COc1cc(/C=N/Nc2ccc(Cl)c(C(=O)O)c2)ccc1OC(=O)c1cccs1
> 60 µM (inactive)	Cc1nc(NC(=O)/C=C/c2ccccc2)sc1C(=O)Nc1ccccc1Cl
> 60 µM (inactive)	COc1ccccc1Nc1nn2c(=O)c3ccc(C(=O)NCc4cccnc4)cc3nc2s1
> 60 µM (inactive)	CCc1ccc(Nc2n[n+](-c3ccccc3)c(-c3ccc(N(CC)CC)cc3)s2)cc1
> 60 µM (inactive)	COC(=O)c1ccccc1OCCCOc1ccc(C)cc1OC
> 60 µM (inactive)	Cc1[nH]n(-c2ccccc2)c(=O)c1N=Nc1ccc(C(N)=O)cc1
> 60 µM (inactive)	Cc1nc2ccc(C(=O)O)cc2[nH]1
> 60 µM (inactive)	O=C(O)c1cc(N/N=C/c2cccnc2)ccc1Cl
> 60 µM (inactive)	O=C(O)c1ccc(S(=O)(=O)/N=C2\C=C(Nc3ccccc3F)C(=O)c3ccccc32)cc1
> 60 µM (inactive)	CCC(=O)Nc1ccccc1C(=O)OCC(=O)c1ccccc1
> 60 µM (inactive)	Cc1c(-c2nc(-c3ccc(C(F)(F)F)cc3)no2)n(C)oc1=O
> 60 µM (inactive)	CC1=NN(c2ccccc2)C(=O)/C1=C\N(O)c1ccccc1
> 60 µM (inactive)	O=c1oc2ccc(Cl)cc2nc1/C=C(\O)c1cccs1
> 60 µM (inactive)	Cc1cc2ccccc2n1CCNC(=O)c1ccccc1

IC50	Compound
> 60 µM (inactive)	COC(=O)c1ccc(NC(=O)c2ccc(C)cc2)o1
> 60 µM (inactive)	O=C(O)c1ccc(NC2=C/C(=N/S(=O)(=O)c3ccccc3)c3ccccc3C2=O)cc1
inactive	Cc1ccc(OCc2ccc(C(=O)O)o2)cc1C
> 60 µM (inactive)	Cc1oc(-c2ccc(-c3ccccc3)cc2)nc1CN(C)C1CCOC1 (stereo unspecified)
> 60 µM (inactive)	Cc1cc2ccccc2n1CCNC(=O)c1cccs1
> 60 µM (inactive)	Nc1cc(-c2ccccc2)ccc1O
> 60 µM (inactive)	O=[N+]([O-])c1ccc(S(=O)(=O)N2CCN=C2SCc2ccc(F)cc2)cc1
inactive	COC(=O)c1ccc(N/C=C/C(=O)c2ccccc2)cc1
> 60 µM (inactive)	COc1cccc(-c2cc3nc4c(c(NCC(C)(C)CN(C)C)n3n2)CCCC4)c1
inactive	Cc1ccc(C(=O)CSc2ccccc2C(=O)O)cc1
> 60 µM (inactive)	O=[N+]([O-])c1ccc(N=Nc2ncc[nH]2)cc1
> 60 µM (inactive)	Cc1ccc(C(=O)CN2C(=O)c3ccccc3S2(=O)=O)cc1
> 60 µM (inactive)	COC(=O)c1ccc(COc2ccc3c(C)c(C)c(=O)oc3c2)o1
inactive	CC(C)(C)c1ccc(C(=O)c2c[nH]c(C(=O)O)c2)cc1
> 60 µM (inactive)	[O-]/[N+](=C\c1ccco1)c1ccc(Cl)cc1
> 20 µM (inactive)	CN1C(=O)S/C(=C/c2ccc(OCc3cccc(C(=O)O)c3)cc2)C1=O
> 60 µM (inactive)	Cc1cc(C)c2nc(N3CCC(C(=O)NCCCN4CC(C)CC(C)C4)CC3)sc2c1 (stereo unspecified)
inactive	COc1ccc(-c2cc3c(=O)n(CC(=O)NCCCN4CCC(Cc5ccccc5)CC4)ncn3n2)cc1
> 60 µM (inactive)	CCN(CC)c1ccc(SS(=O)(=O)O)cc1
inactive	CCCCOc1ccc(-c2cc(C(=O)NNC(=S)NCC)c3ccccc3n2)cc1
> 60 µM (inactive)	CCOC(=O)c1sc(NC(=O)c2ccc(C)o2)nc1C
> 60 µM (inactive)	Cc1ccc(S(=O)(=O)/N=C2\C=C(Nc3cccc(C(=O)O)c3)C(=O)c3ccccc32)c(C)c1
> 60 µM (inactive)	Cc1ccc(/C=C2\SC(=S)N(CCCC(=O)Nc3ccccn3)C2=O)cc1

From PubChem BioAssay AID1912 (The Scripps Research Institute Molecular Screening Center, 2009)
